Results on two compounds are retold here after patent US9884851B2, “Heterocycle-bisamide inhibitors of scavenger receptor BI” (THE BROAD INSTITUTE, INC., priority 2012, dated 2018).

The structures appear in SMILES notation. Residue numbers refer to the chain shown, from its start. Several values for one entry are separate records, joined by “and”; a condition that tells them apart may be missing. Equal entries are not always repeated.

One test deals with T1, murine SR-BI, isoform 1 (Mus musculus, UniProt Q61009).
T1 construct: expressed in transfected cells; host or cells: ldlA[mSR-BI], Chinese hamster ovary (CHO) cells lacking LDL receptor (Krieger Laboratory)
T1 sequence (Q61009 1-509): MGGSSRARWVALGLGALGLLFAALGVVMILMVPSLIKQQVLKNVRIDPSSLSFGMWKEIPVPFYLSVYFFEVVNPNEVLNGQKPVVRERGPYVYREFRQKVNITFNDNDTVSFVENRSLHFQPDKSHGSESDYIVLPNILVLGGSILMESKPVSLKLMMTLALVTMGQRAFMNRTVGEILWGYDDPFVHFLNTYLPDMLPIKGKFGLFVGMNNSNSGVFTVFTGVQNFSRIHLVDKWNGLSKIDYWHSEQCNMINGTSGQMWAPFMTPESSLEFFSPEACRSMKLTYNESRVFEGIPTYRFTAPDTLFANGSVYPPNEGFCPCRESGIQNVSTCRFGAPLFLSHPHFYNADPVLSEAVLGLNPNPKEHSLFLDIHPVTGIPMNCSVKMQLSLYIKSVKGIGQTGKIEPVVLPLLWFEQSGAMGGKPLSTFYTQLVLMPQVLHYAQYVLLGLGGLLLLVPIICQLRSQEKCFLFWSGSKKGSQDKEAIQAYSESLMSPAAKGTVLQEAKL
As to the kind of experiment: DiI-HDL uptake assay (primary assay). Format: cell-based. To be noted: for IC50: ldlA[mSR-BI] cells, 3 hours with compound. The procedure: The following cell lines were used in this study: • ldlA[mSR-BI] is a Chinese hamster ovary (CHO) cell line that overexpresses murine SR-BI, isoform 1 (NP_058021) and was obtained from the (Krieger Laboratory). This cell line was used for the primary assay and several secondary assays. […] Assays DiI-HDL Uptake Assay (Primary Assay AID Nos. 488896, 493194, 540354 588392, 588553, 588548, 588754, 588828, 588833)
ldlA[mSR-BI] cells were plated into 384-well plates at 30 μl per well and incubated overnight. As a measurable surrogate for cholesterol uptake, human HDL particles were treated with the lipophilic fluorescent dye DiI and exposed to ldlA[mSR-BI] cells in lipoprotein-free media (Ham's F12/0.5% fatty acid-free Bovine Serum Albumin (BSA)/25 mM HEPES pH 7.4 plus 10 μg protein/ml DiI-HDL). Cells took up the DiI via SR-BI over 3 hours in the presence of compound. After significant uptake of the DiI, the cells became fluorescent. The level of fluorescence correlates with the amount of DiI uptake and can be measured with a standard plate reader (here a PerkinElmer EnVision plate reader was used). The uptake of lipid (represented by DiI) was inhibited by the positive control compound BLT-1 or with an excess of HDL untreated with DiI. Primary HTS data were analyzed in Genedata Screener Assay Analyzer, and were normalized against DMSO and the positive control (1 μM BLT-1). For the HTS, the average of two replicates was used to rank order activity and to choose compounds for retests. For dose studies, percent (%) activity was determined for each concentration and the concentration response curves (CRCs) were generated with Genedata Condeseo.
To identify novel inhibitors, SR-BI-mediated lipid uptake was measured in an engineered cell line that minimized potential uptake by other mechanisms, including via the LDL receptor (1). ldlA[mSR-BI] cells overexpress murine isoform 1 and selectively take up HDL lipid at similar levels as “has been reported for cultured mouse adrenal cells, perfused organs, and liver, adrenal gland and ovary in vivo” (1). This primary cell-based assay was used in a pilot screen that identified BLTs 1 through 5. The assay was slightly modified from the original protocol of Nieland et al. to increase throughput and to ease automation procedures.
Briefly, the plate reader was switched to a Perkin-Elmer EnVision, several washing steps were eliminated, and the cell number per well was reduced without impacting the robustness of the assay. The automated assay was first tested with a validation set of 2,240 compounds. These compounds were tested in duplicate with in-plate neutral (DMSO) and positive (1 μM BLT-1) controls. Robustness, reproducibility, and variability parameters were analyzed before initiating the full HTS. The HTS was run over the course of several weeks. Data were normalized relative to controls, and plate patterns were corrected using a multiplicative algorithm in Genedata Screener Assay Analyzer. For each compound, the average of the two replicates was determined and used for subsequent analysis.

The target in test [1] is T2, murine SR-BI with the C384S mutation (Mus musculus, UniProt Q61009, C384S).
T2 construct: expressed in transfected cells; host or cells: CHO cell line lacking LDL receptors, overexpressing C384S SR-BI
T2 sequence (Q61009 1-509 C384S): T1 sequence (Q61009 1-509) with C384S
In words: Mutant SR-BI cholesterol efflux assay. The test is classed as cell-based. The settings on record: Cys384 converted to serine. The procedure: Mutant SR-BI Cholesterol Efflux Assay (SA 10: AID Nos. 588843, 602138)
BLT-1 is known to interact at cysteine 384 of SR-BI (16). […] This assay is used to determine if the compounds work in a similar fashion to BLT-1 and require Cys384 to alter the efflux of FC to HDL.
On Day 0, 50,000 cells expressing murine SR-BI with the C384S mutation per well were plated in 24-well plates. On the following day, the media was removed and [^3H]cholesterol in lipoprotein-deficient media was added. On Day 1, the medium was replaced with Ham's F12 medium supplemented with 10% bovine lipoprotein deficient serum, 1 μCi/ml [1,2-^3H]cholesterol (40-60 Ci/mmol). On Day 3, the cells were washed to remove serum and incubated in Ham's F12 plus 1% fatty acid-free BSA. On Day 4, the cells were washed and pretreated with compounds for 1 hour. Subsequently, the cells were incubated for an additional 2 hours with the same concentrations of small molecules and with unlabeled HDL (final HDL concentration of 100 μg protein/ml). […] The amount of [^3H]cholesterol in the medium and within cells was determined using liquid scintillation counting. Total cellular [^3H]cholesterol was calculated as the sum of the radioactivity in the efflux medium plus the radioactivity in the cells and was used to calculate the [^3H]cholesterol efflux (percent of total [^3H]cholesterol released into the medium).

For orientation: IC50 means the concentration that gives 50% inhibition. Regarding `CCCCCCC1CCCC1=NNC(N)=S` (stereo not shown) [BLT-1, reference compound], the “reduction in signal in primary HTS” value at murine SR-BI, isoform 1 (1 μM, positive control) is over 2.2 fold. Further, the half-maximal inhibitory concentration (IC50) on murine SR-BI, isoform 1 was 10.8 nM. Besides, the “efflux of cholesterol in C384S mutant background (in words)” value in test [1] is on record as “cannot reduce uptake of HDL or efflux of cholesterol”.
Regarding `C[C@H](C(=O)NC1CCCC1)N(C(=O)Cn1nnc(-c2ccc3c(c2)OCO3)n1)C1CCCCC1` [ML279, (R)-2-(2-(5-(Benzo[d][1,3]dioxol-5-yl)-2H-tetrazol-2-yl)-N-cyclohexylacetamido)-N-cyclopentylpropanamide], on murine SR-BI, isoform 1, the selectivity entry is “greater than 1000”; the IC50 was 16 nM and 16.2 nM. Besides, on murine SR-BI, isoform 1 (AID No. 588828), the “higher potency than ITX-5061” value is on record as “approximately 15 fold”. Besides, the “efflux of cholesterol in C384S mutant background (in words)” value in test [1] is “can reduce uptake and efflux in the mutant background”.
